Assay results as given in US10457707B2, “Substituted urea depsipeptide analogs as activators of the CLPP endopeptidase” (priority 2015, dated 2019).
≈ marks a conversion by molar mass, not a printed value. Like-named read-outs stand apart in the source and are kept apart here. *1 amine or outer side, *2 acyl side, *3 side chain or, on linkers, in order; H or OH if unused. Where a SMILES comes first, the peptide text is derived from it. Bridges are numbered along the chain shown (N, C = ends). [ ]: non-standard residue; d: D form. The star is where a group is joined. ξ: configuration not given here. Phe(3,5-F2) = N[C@@H](Cc1cc(F)cc(F)c1)C(=O)O; NH(1-Me-indolin-5-yl) = CN1CCc2cc(N*)ccc21; NH(4-Cl-2-F-phenyl) = Fc1cc(Cl)ccc1N*; Pro(4R-Me) = C[C@H]1CN[C@H](C(=O)O)C1; Hyp = O=C(O)[C@@H]1C[C@@H](O)CN1; ξNMeThr = CNC(C(=O)O)[C@@H](C)O; aThr = C[C@H](O)[C@H](N)C(=O)O; Pip = O=C(O)[C@@H]1CCCCN1; X2 = CN1CCc2ccc(N*)cc21; CO = O=C([*:1])[*:2]

Experiments:
Format in all cases: cell-based
[1] = system: Streptococcus pyogenes, ATCC 700294; assay: Minimal inhibitory concentration assay (microbroth dilution)
Summary of the method: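 Plates with two-fold compound dilution series in broth were incubated overnight, aerobically, at 37° C, following CLSI microdilution guidance.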

[2] = Cytotoxicity assay (CellTiter-Glo cell viability, 72 hours); settings: African green monkey
Summary of the method: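 Viability measured by CellTiter-Glo luminescence after 72-hour compound exposure (serial dilutions, DMSO control) of Vero monolayers seeded at 5000 cells/well in 10% FBS DMEM. IC50 values are the range of two biologically independent experiments, each run in duplicate.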

[3] = system: Staphylococcus aureus, ATCC 29213; assay: Minimal inhibitory concentration assay (microbroth dilution); settings: ATCC29213, read-out: Minimal Inhibitory Concentrations S. aureus ATCC 29213
Summary of the method: (§1)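 Visual read-out; MIC is the lowest drug concentration with no bacterial growth after overnight aerobic incubation at 37 °C. Compound was tested in two-fold dilutions starting at 200 μM final, with an inoculum of approximately 10^5 cfu/mL, following CLSI microdilution guidance.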

[4] = system: Staphylococcus aureus, NRS70; assay: as above
Summary of the method: as §1

[5] = system: Bacillus subtilis, ATCC 23857; assay: as above
Summary of the method: as §1

[6] = Streptococcus pyogenes, ATCC700294, read-out: Minimal Inhibitory Concentrations S. pyogenes ATCC 700294
[7] = Vero cells, 72 hours, growth inhibition, read-out: Cytotoxicity IC50
[8] = Staphylococcus aureus, NRS70, read-out: Minimal Inhibitory Concentrations S. aureus NRS70
[9] = Bacillus subtilis, ATCC23857, read-out: Minimal Inhibitory Concentrations B. subtilis ATCC 23857

SMILES	MIC [1, 6] [µM]	IC50 at 72 h [2, 7] [µM]	MIC [3] [µM]	MIC [4, 8] [µM]	MIC [5, 9] [µM]	MIC ([1]; Streptococcus pyogenes, ATCC700294; read-out: Minimal Inhibitory Concentrations S. pyogenes ATCC 700294) [µM]	IC50 at 72 h [2] [µM]	MIC ([4]; Staphylococcus aureus, NRS70; read-out: Minimal Inhibitory Concentrations S. aureus NRS70) [µM]	MIC ([5]; Bacillus subtilis, ATCC23857; read-out: Minimal Inhibitory Concentrations B. subtilis ATCC 23857) [µM]
C[C@@H]1C[C@H]2C(=O)O[C@@H](C)[C@H](NC(=O)[C@H](Cc3cc(F)cc(F)c3)NC(=O)Nc3ccc4c(c3)N(C)CC4)C(=O)N3CCC[C@H]3C(=O)N3CCCC[C@H]3C(=O)N[C@@H](C)C(=O)N2C1 [Compound 321, (S)-3-(3,5-difluorophenyl)-2-(3-(1-methylindolin-6-yl)ureido)-N-((2R,6S,8aS,14aS,20S,21S,23aS)-2,6,21-trimethyl-5,8,14,19,23-pentaoxooctadecahydro-1H,5H,14H,19H-pyrido[2,1-i]dipyrrolo[2,1-c:2′,1′-l][1]oxa[4,7,10,13]tetraazacyclo-hexadecin-20-yl)propanamide] ({X2-CO}-[Phe(3,5-F2)][aThr]P[Pip]A[Pro(4R-Me)]; ester 2-C)	0.313 (≈ 0.266 µg/mL)	1.39 ± 0.1	0.313 (≈ 0.266 µg/mL)	0.156 (≈ 0.132 µg/mL)	0.313 (≈ 0.266 µg/mL)	–	–	–	–
C[C@@H]1C[C@H]2C(=O)O[C@@H](C)[C@H](NC(=O)[C@H](Cc3cc(F)cc(F)c3)NC(=O)Nc3ccc4c(c3)CCN4C)C(=O)N3CCC[C@H]3C(=O)N(C)C([C@@H](C)O)C(=O)N[C@@H](C)C(=O)N2C1 (stereo partly drawn) [Compound 311, (S)-3-(3,5-difluorophenyl)-N-((2R,6S,9R,11aS,17S,18S,20aS)-9-((R)-1-hydroxyethyl)-2,6,10,18-tetramethyl-5,8,11,16,20-pentaoxohexadecahydro-1H,5H,16H-dipyrrolo[2,1-c:2′,1′-l][1]oxa[4,7,10,13]tetraazacyclohexadecin-17-yl)-2-(3-(1-methylindolin-5-yl)ureido)propanamide] ({NH(1-Me-indolin-5-yl)-CO}-[Phe(3,5-F2)][aThr]P[ξNMeThr]A[Pro(4R-Me)]; ester 2-C)	0.156 (≈ 0.133 µg/mL)	14.3 ± 0.3	0.156 (≈ 0.133 µg/mL)	0.156 (≈ 0.133 µg/mL)	0.313 (≈ 0.267 µg/mL)	–	–	–	–
C[C@@H]1C[C@H]2C(=O)O[C@@H](C)[C@H](NC(=O)[C@H](Cc3cc(F)cc(F)c3)NC(=O)Nc3ccc(Cl)cc3F)C(=O)N3C[C@H](O)C[C@H]3C(=O)N3CCCC[C@H]3C(=O)N[C@@H](C)C(=O)N2C1 [Compound 329, (S)-2-(3-(4-chloro-2-fluorophenyl)ureido)-3-(3,5-difluorophenyl)-N-((2R,6S,8aS,14aS,16R,20S,21S,23aS)-16-hydroxy-2,6,21-trimethyl-5,8,14,19,23-pentaoxooctadecahydro-1H,5H,14H,19H-pyrido[2,1-i]dipyrrolo[2,1-c:2′,1′-l][1]oxa[4,7,10,13]tetraazacyclo-hexadecin-20-yl)propanamide] ({NH(4-Cl-2-F-phenyl)-CO}-[Phe(3,5-F2)][aThr][Hyp][Pip]A[Pro(4R-Me)]; ester 2-C)	–	–	0.078 (≈ 0.0673 µg/mL)	–	–	0.078 (≈ 0.0673 µg/mL)	24.5 ± 2.5	0.039 (≈ 0.0336 µg/mL)	0.039 (≈ 0.0336 µg/mL)
